# Measurements published in PubChem BioAssay AID1963848 (Molecular Pharmacology Branch, DTP, NCI, 2024).
# System: 379773-124-R-J2-PDC spheroid viability
# Experiment: Anticancer human tumor 379773-124-R-J2-PDC patient-derived endometrial carcinoma cell line growth inhibition [POLQ]
# Conditions: spheroids with HUVEC and MSC; for IC50: curve of first compound; for viability, T/C: stronger effect = lower value
# How it was run: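 Three-cell-type spheroids modelling solid tumor plus stroma served as the readout system; POL inhibitors were tested individually and in combination, concentration ranges set by clinical Cmax where known.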
# [1] = second compound 0.0316 µM, first compound 0.0316 µM
# [2] = second compound 0.0316 µM, first compound 0.1 µM
# [3] = second compound 0.0316 µM, first compound 0.316 µM
# [4] = second compound 0.0316 µM, first compound 1 µM
# [5] = second compound 0.1 µM, first compound 0.0316 µM
# [6] = second compound 0.1 µM, first compound 0.1 µM
# [7] = second compound 0.1 µM, first compound 0.316 µM
# [8] = second compound 0.1 µM, first compound 1 µM
# [9] = second compound 0.316 µM, first compound 0.0316 µM
# [10] = second compound 0.316 µM, first compound 0.1 µM
# [11] = second compound 0.316 µM, first compound 0.316 µM
# [12] = second compound 0.316 µM, first compound 1 µM
# [13] = second compound 1 µM, first compound 0.0316 µM
# [14] = second compound 1 µM, first compound 0.1 µM
# [15] = second compound 1 µM, first compound 0.316 µM
# [16] = second compound 1 µM, first compound 1 µM
# [17] = second compound 3.16 µM, first compound 0.0316 µM
# [18] = second compound 3.16 µM, first compound 0.1 µM
# [19] = second compound 3.16 µM, first compound 0.316 µM
# [20] = second compound 3.16 µM, first compound 1 µM
# [21] = second compound 10 µM, first compound 0.0316 µM
# [22] = second compound 10 µM, first compound 0.1 µM
# [23] = second compound 10 µM, first compound 0.316 µM
# [24] = second compound 10 µM, first compound 1 µM
# [25] = second compound 0.0316 µM, first compound 3.16 µM
# [26] = second compound 0.0316 µM, first compound 10 µM
# [27] = second compound 0.1 µM, first compound 3.16 µM
# [28] = second compound 0.1 µM, first compound 10 µM
# [29] = second compound 0.316 µM, first compound 3.16 µM
# [30] = second compound 0.316 µM, first compound 10 µM
# [31] = second compound 1 µM, first compound 3.16 µM
# [32] = second compound 1 µM, first compound 10 µM
# [33] = second compound 3.16 µM, first compound 3.16 µM
# [34] = second compound 3.16 µM, first compound 10 µM
# [35] = second compound 10 µM, first compound 3.16 µM
# [36] = second compound 10 µM, first compound 10 µM
# 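Note: spheroids exposed to drugs for seven days before readout.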
# 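Throughout, for viability, T/C: percent viability relative to DMSO vehicle control taken as 100%.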
smiles,measurement,setting,value
CCc1c2c(nc3ccc(O)cc13)-c1cc3c(c(=O)n1C2)COC(=O)[C@]3(O)CC + Cc1cccc(N(C)C(=O)C2C(O)CCN2c2nc(C)cc(C(F)(F)F)c2C#N)c1,IC50,second compound 0.0316 µM,< 0.00316 µM
same,IC50,second compound 0.1 µM,< 0.00316 µM
same,IC50,second compound 0.316 µM,< 0.00316 µM
same,IC50,second compound 1 µM,< 0.00316 µM
same,IC50,second compound 3.16 µM,< 0.00316 µM
same,IC50,second compound 10 µM,< 0.00316 µM
same,"viability, T/C","second compound 0.0316 µM, first compound 0.00316 µM",42.3%
same,"viability, T/C","second compound 0.0316 µM, first compound 0.01 µM",11.2%
same,"viability, T/C",[1],7.22%
same,"viability, T/C",[2],2.98%
same,"viability, T/C",[3],1.21%
same,"viability, T/C",[4],0.39%
same,"viability, T/C","second compound 0.1 µM, first compound 0.00316 µM",42.5%
same,"viability, T/C","second compound 0.1 µM, first compound 0.01 µM",11.1%
same,"viability, T/C",[5],6.54%
same,"viability, T/C",[6],3.61%
same,"viability, T/C",[7],2%
same,"viability, T/C",[8],1.94%
same,"viability, T/C","second compound 0.316 µM, first compound 0.00316 µM",50%
same,"viability, T/C","second compound 0.316 µM, first compound 0.01 µM",10.5%
same,"viability, T/C",[9],6.39%
same,"viability, T/C",[10],2.26%
same,"viability, T/C",[11],1.38%
same,"viability, T/C",[12],0.58%
same,"viability, T/C","second compound 1 µM, first compound 0.00316 µM",41.5%
same,"viability, T/C","second compound 1 µM, first compound 0.01 µM",12.6%
same,"viability, T/C",[13],7.38%
same,"viability, T/C",[14],2.95%
same,"viability, T/C",[15],2.13%
same,"viability, T/C",[16],0.49%
same,"viability, T/C","second compound 3.16 µM, first compound 0.00316 µM",43.7%
same,"viability, T/C","second compound 3.16 µM, first compound 0.01 µM",14.4%
same,"viability, T/C",[17],7.52%
same,"viability, T/C",[18],3.81%
same,"viability, T/C",[19],1.74%
same,"viability, T/C",[20],0.63%
same,"viability, T/C","second compound 10 µM, first compound 0.00316 µM",30.8%
same,"viability, T/C","second compound 10 µM, first compound 0.01 µM",13.9%
same,"viability, T/C",[21],7.18%
same,"viability, T/C",[22],3.13%
same,"viability, T/C",[23],2.07%
same,"viability, T/C",[24],1.28%
CC(C)n1c(=O)n(C)c2cnc3cc(F)c(-c4ccc(OCCCN5CCCCC5)nc4)cc3c21 + Nc1ccc(C#CCN(C(=O)Cc2ncc(C(F)(F)F)cc2C(F)(F)F)c2ccc(F)cc2)nn1,IC50,second compound 0.0316 µM,> 10 µM
same,IC50,second compound 0.1 µM,> 10 µM
same,IC50,second compound 0.316 µM,> 10 µM
same,IC50,second compound 1 µM,> 10 µM
same,IC50,second compound 3.16 µM,> 10 µM
same,IC50,second compound 10 µM,> 10 µM
same,"viability, T/C",[1],95.4%
same,"viability, T/C",[2],96.4%
same,"viability, T/C",[3],83.3%
same,"viability, T/C",[4],94.3%
same,"viability, T/C",[25],81.7%
same,"viability, T/C",[26],72.6%
same,"viability, T/C",[5],97.9%
same,"viability, T/C",[6],92.6%
same,"viability, T/C",[7],85.3%
same,"viability, T/C",[8],87.6%
same,"viability, T/C",[27],78.9%
same,"viability, T/C",[28],73.6%
same,"viability, T/C",[9],90.4%
same,"viability, T/C",[10],96.7%
same,"viability, T/C",[11],84.7%
same,"viability, T/C",[12],88.8%
same,"viability, T/C",[29],81.4%
same,"viability, T/C",[30],74.9%
same,"viability, T/C",[13],98.5%
same,"viability, T/C",[14],98.2%
same,"viability, T/C",[15],87%
same,"viability, T/C",[16],94.5%
same,"viability, T/C",[31],84.7%
same,"viability, T/C",[32],77.8%
same,"viability, T/C",[17],92.6%
same,"viability, T/C",[18],87.5%
same,"viability, T/C",[19],82.1%
same,"viability, T/C",[20],80.7%
same,"viability, T/C",[33],85.9%
same,"viability, T/C",[34],85.3%
same,"viability, T/C",[21],85.5%
same,"viability, T/C",[22],89.7%
same,"viability, T/C",[23],77%
same,"viability, T/C",[24],77.8%
same,"viability, T/C",[35],75.2%
same,"viability, T/C",[36],73.8%
O=C(Nc1ccc(O)c(NS(=O)(=O)c2ccc(F)cc2)c1)c1ccc(-c2ccccc2)cc1 + Cc1cccc(N(C)C(=O)C2C(O)CCN2c2nc(C)cc(C(F)(F)F)c2C#N)c1,IC50,second compound 0.0316 µM,> 10 µM
same,IC50,second compound 0.1 µM,> 10 µM
same,IC50,second compound 0.316 µM,> 10 µM
same,IC50,second compound 1 µM,> 10 µM
same,IC50,second compound 3.16 µM,> 10 µM
same,IC50,second compound 10 µM,> 10 µM
same,"viability, T/C",[1],94.5%
same,"viability, T/C",[2],109%
same,"viability, T/C",[3],85.7%
same,"viability, T/C",[4],102%
same,"viability, T/C",[25],88.9%
same,"viability, T/C",[26],75.3%
same,"viability, T/C",[5],88.8%
same,"viability, T/C",[6],91.8%
same,"viability, T/C",[7],87.2%
same,"viability, T/C",[8],92.4%
same,"viability, T/C",[27],86.4%
same,"viability, T/C",[28],85.8%
same,"viability, T/C",[9],96.7%
same,"viability, T/C",[10],104%
same,"viability, T/C",[11],104%
same,"viability, T/C",[12],99.6%
same,"viability, T/C",[29],92.8%
same,"viability, T/C",[30],87%
same,"viability, T/C",[13],102%
same,"viability, T/C",[14],86.2%
same,"viability, T/C",[15],90.9%
same,"viability, T/C",[16],90.2%
same,"viability, T/C",[31],94.5%
same,"viability, T/C",[32],75.5%
same,"viability, T/C",[17],98.3%
same,"viability, T/C",[18],90.3%
same,"viability, T/C",[19],85.4%
same,"viability, T/C",[20],92.5%
same,"viability, T/C",[33],85.4%
same,"viability, T/C",[34],71%
same,"viability, T/C",[21],84%
same,"viability, T/C",[22],93.1%
same,"viability, T/C",[23],80.4%
same,"viability, T/C",[24],94%
same,"viability, T/C",[35],80.5%
same,"viability, T/C",[36],62.3%
